What follows are compounds tested on TEAD-dependent transcription (assay: TEAD-dependent transcription cell-based reporter assay (MSTO-211H+12XGTIIC luciferase)). Conditions: Homo sapiens; MSTO-211H+12XGTIIC cell line, luciferase signal normalized to cell viability, 24 hours compound incubation; read-out: MSTO-211H GMean IC50 (uM) Cell Assay Reporter Cell Variant: TEAD.
Parameters: species or system human
Excerpt: Determine Inhibitor Activity Against TEAD-Dependent Transcription in a Cell-Based Reporter Assay
The human mesothelioma cell line MSTO-211H was stably transfected with a pGL4.21 plasmid containing a synthetic promoter with 12 copies of the GTIIC TEAD response element that drives the expression of a luciferase reporter gene^1 using Lipofectamine transfection reagent (Thermo Fisher). Transfected cells were selected using puromycin and single cell clones expressing this construct (referred to as MSTO-211H+12XGTIIC) were generated by limiting dilution. MSTO-211H cells was characterized by genetic alterations in key components of the Hippo pathway^2, resulting in up-regulation of YAP/TEAD-mediated transcription. […] To evaluate TEAD inhibitors, the MSTO-211H+12XGTIIC cell line was seeded in a 96-well plate in 50 μL of culture media at 1×10^4 cells per well and incubated at 37° C. overnight. Serial dilutions of compounds (in total volume of 50 μL of culture media) were added to the cells and incubated at 37° C. for 24 hours. Each plate included cells treated with DMSO as high controls and cells treated with 20 μM of the reference compound K-975 (a known TEAD inhibitor)^3 as low controls. Cell viability was assayed by the addition of 25 μL of CellTiter-Fluor reagent (Promega) followed by a 30-minute incubation at 37° C. and quantification of the fluorescence signal (Ex400/Em505). Subsequently, luciferase expression was assayed by the addition of 25 μL of ONE-Glo reagent (Promega) followed by a 10-minute incubation at room temperature and quantification of the luminescence signal. The luminescence signal was normalized to the fluorescence signal to correct for any loss in cell viability over the 24-hour compound incubation period. The percentage of inhibition of normalized luminescence signal, indicative of compound-mediated inhibition of TEAD-dependent transcription, at individual compound concentrations relative to high and low controls was calculated. The data were analyzed by using nonlinear regression to generate IC50 values for individual compounds.
Compound C=CC(=O)N1CCC(C2c3cc(Oc4ccc(C(F)(F)F)cc4)ccc3CCN2C(=O)CCS(C)(=O)=O)C1 (single isomer, unassigned) [P-0217, 1-(3-(2-(3-(methylsulfonyl)propanoyl)-7-(4-(trifluoromethyl)phenoxy)-1,2,3,4-tetrahydroisoquinolin-1-yl)pyrrolidin-1-yl)prop-2-en-1-one] has an IC50 of 0.001 to 10 µM. Compound NS(=O)(=O)N1CCc2ccc(Oc3ccc(C(F)(F)F)cc3)cc2C1 [P-0001, 7-(4-(trifluoromethyl)-phenoxy)-3,4-dihydroiso-quinoline-2(1H)-sulfon-amide] has an IC50 of 0.001 to 10 µM. Compound CCS(=O)(=O)N1CCc2ccc(Oc3ccc(C(F)(F)F)cc3)cc2C1 [P-0002, 2-(ethylsulfonyl)-7-(4-(trifluoromethyl)phen-oxy)-1,2,3,4-tetrahydro-isoquinoline] has an IC50 of 0.001 to 10 µM. In the case of CCNC(=O)N1CCc2ccc(Oc3ccc(C(F)(F)F)cc3)cc2C1 [P-0003, N-ethyl-7-(4-(trifluoro-methyl)phenoxy)-3,4-dihydroisoquinoline-2(1H)-carboxamide], the IC50 is reported as 0.001 to 10 µM. Compound O=C(NC1CC1)N1CCc2ccc(Oc3ccc(C(F)(F)F)cc3)cc2C1 [P-0004, N-cyclopropyl-7-(4-(trifluoromethyl)phen-oxy)-3,4-dihydroiso-quinoline-2(1H)-carbox-amide] has an IC50 of 0.001 to 10 µM. For CS(=O)(=O)N1CCc2ccc(Oc3ccc(C(F)(F)F)cc3)cc2C1 [P-0005, 2-(methylsulfonyl)-7-(4-(trifluoromethyl)phen-oxy)-1,2,3,4-tetrahydro-isoquinoline], the IC50 was 0.001 to 10 µM. For O=S(=O)(C1CC1)N1CCc2ccc(Oc3ccc(C(F)(F)F)cc3)cc2C1 [P-0006, 2-(cyclopropylsulfonyl)-7-(4-(trifluoromethyl)-phenoxy)-1,2,3,4-tetra-hydroisoquinoline], the IC50 was 0.001 to 10 µM. Work on O=C(C(O)CO)N1CCc2ccc(Oc3ccc(C(F)(F)F)cc3)cc2C1 (centres unmarked) [P-0007, 2,3-dihydroxy-1-(7-(4-(trifluoromethyl)phen-oxy)-3,4-dihydroisoquin-olin-2(1H)-yl)propan-1-one] yielded an IC50 of 0.001 to 10 µM. NC(=O)N1CCc2ccc(Oc3ccc(C(F)(F)F)cc3)cc2C1 [P-0010, 7-(4-(trifluoromethyl)-phenoxy)-3,4-dihydroiso-quinoline-2(1H)-carbox-amide] showed an IC50 of 0.001 to 10 µM. O=C(N1CCc2ccc(Oc3ccc(C(F)(F)F)cc3)cc2C1)C12CC1C2 (centres unmarked) [P-0011, bicyclo[1.1.0]butan-1-yl(7-(4-(trifluoromethyl)-phenoxy)-3,4-dihydro-isoquinolin-2(1H)-yl)-methanone] showed an IC50 of 0.001 to 10 µM. With CNS(=O)(=O)N1CCc2ccc(Oc3ccc(C(F)(F)F)cc3)cc2C1 [P-0012, N-methyl-7-(4-(trifluoro-methyl)phenoxy)-3,4-dihydroisoquinoline-2(1H)-sulfonamide] the IC50 was 0.001 to 10 µM. Compound CC(=O)N1CCc2ccc(Oc3ccc(C(F)(F)F)cc3)cc2C1 [P-0013, 1-(7-(4-(trifluorometh-yl)phenoxy)-3,4-dihydroisoquinolin-2(1H)-yl)ethan-1-one] has an IC50 of 0.001 to 10 µM. Work on CCC(=O)N1CCc2ccc(Oc3ccc(C(F)(F)F)cc3)cc2C1 [P-0014, 1-(7-(4-(trifluorometh-yl)phenoxy)-3,4-dihydroisoquinolin-2(1H)-yl)propan-1-one] yielded an IC50 of 0.001 to 10 µM. O=C(C1CC1)N1CCc2ccc(Oc3ccc(C(F)(F)F)cc3)cc2C1 [P-0015, cyclopropyl(7-(4-(trifluoromethyl)phen-oxy)-3,4-dihydroiso-quinolin-2(1H)-yl)-methanone] showed an IC50 of 0.001 to 10 µM. CNC(=O)N1CCc2ccc(Oc3ccc(C(F)(F)F)cc3)cc2C1 [P-0016, N-methyl-7-(4-(trifluoro-methyl)phenoxy)-3,4-dihydroisoquinoline-2(1H)-carboxamide] gave an IC50 of 0.001 to 10 µM. For CCNS(=O)(=O)N1CCc2ccc(Oc3ccc(C(F)(F)F)cc3)cc2C1 [P-0017, N-Ethyl-7-(4-(trifluoromethyl)phenoxy)-3,4-dihydroisoquinoline-2(1H)-sulfonamide], the IC50 was 0.001 to 10 µM. CS(=O)(=O)CCC(=O)N1CCc2ccc(Oc3ccc(C(F)(F)F)cc3)cc2C1 [P-0018, 3-(methylsulfonyl)-1-(7-(4-(trifluoromethyl)phenoxy)-3,4-dihydroisoquinolin-2(1H)-yl)propan-1-one] was tested, and the IC50 was 0.001 to 10 µM. Compound CC(C)NC(=O)N1CCc2ccc(Oc3ccc(C(F)(F)F)cc3)cc2C1 [P-0019, N-isopropyl-7-(4-(trifluoromethyl)phen-oxy)-3,4-dihydroiso-quinoline-2(1H)-carbox-amide] has an IC50 of 0.001 to 10 µM. CC(C)NS(=O)(=O)N1CCc2ccc(Oc3ccc(C(F)(F)F)cc3)cc2C1 [P-0020, N-isopropyl-7-(4-(trifluoromethyl)phen-oxy)-3,4-dihydroiso-quinoline-2(1H)-sulfon-amide] was tested, and the IC50 was 0.001 to 10 µM. With CC(C)S(=O)(=O)N1CCc2ccc(Oc3ccc(C(F)(F)F)cc3)cc2C1 [P-0021, 2-(isopropylsulfonyl)-7-(4-(trifluoromethyl)-phenoxy)-1,2,3,4-tetra-hydroisoquinoline] the IC50 was 0.001 to 10 µM. Compound O=C(Nc1ccccc1)N1CCc2ccc(Oc3ccc(C(F)(F)F)cc3)cc2C1 [P-0022, N-phenyl-7-(4-(trifluoro-methyl)phenoxy)-3,4-dihydroisoquinoline-2(1H)-carboxamide] has an IC50 of 0.001 to 10 µM. CCCCC(=O)N1CCc2ccc(Oc3ccc(C(F)(F)F)cc3)cc2C1 [P-0023, 1-(7-(4-(trifluorometh-yl)phenoxy)-3,4-dihydro-isoquinolin-2(1H)-yl)-pentan-1-one] was tested, and the IC50 was 0.001 to 10 µM. For CN(C)S(=O)(=O)N1CCc2ccc(Oc3ccc(C(F)(F)F)cc3)cc2C1 [P-0024, N,N-dimethyl-7-(4-(trifluoromethyl)phen-oxy)-3,4-dihydroiso-quinoline-2(1H)-sulfon-amide], the IC50 was 0.001 to 10 µM. COC(=O)N1CCc2ccc(Oc3ccc(C(F)(F)F)cc3)cc2C1 [P-0025, methyl 7-(4-(trifluoro-methyl)phenoxy)-3,4-dihydroisoquinoline-2(1H)-carboxylate] gave an IC50 of 0.001 to 10 µM. NC(=O)CN1CCc2ccc(Oc3ccc(C(F)(F)F)cc3)cc2C1 [P-0026, 2-(7-(4-(trifluorometh-yl)phenoxy)-3,4-dihydro-isoquinolin-2(1H)-yl)-acetamide] was tested, and the IC50 was 0.001 to 10 µM. In the case of CN(C)C(=O)CN1CCc2ccc(Oc3ccc(C(F)(F)F)cc3)cc2C1 [P-0027, N,N-dimethyl-2-(7-(4-(trifluoromethyl)phen-oxy)-3,4-dihydroisoquin-olin-2(1H)-yl)acetamide], the IC50 is reported as 0.001 to 10 µM. CCC(=O)CN1CCc2ccc(Oc3ccc(C(F)(F)F)cc3)cc2C1 [P-0028, 1-(7-(4-(trifluorometh-yl)phenoxy)-3,4-dihydro-isoquinolin-2(1H)-yl)-butan-2-one] gave an IC50 of 10 to 100 µM. In the case of NC(=O)CCN1CCc2ccc(Oc3ccc(C(F)(F)F)cc3)cc2C1 [P-0029, 3-(7-(4-(trifluorometh-yl)phenoxy)-3,4-dihydro-isoquinolin-2(1H)-yl)-propanamide], the IC50 is reported as 10 to 100 µM. O=S(=O)(N1CCCC1)N1CCc2ccc(Oc3ccc(C(F)(F)F)cc3)cc2C1 [P-0030, 2-(pyrrolidin-1-ylsulfon-yl)-7-(4-(trifluorometh-yl)phenoxy)-1,2,3,4-tetrahydroisoquinoline] gave an IC50 of 0.001 to 10 µM. CSCCC(=O)N1CCc2ccc(Oc3ccc(C(F)(F)F)cc3)cc2C1 [P-0031, 3-(methylthio)-1-(7-(4-(trifluoromethyl)phen-oxy)-3,4-dihydroisoquin-olin-2(1H)-yl)propan-1-one] gave an IC50 of 0.001 to 10 µM. CCCCNC(=O)N1CCc2ccc(Oc3ccc(C(F)(F)F)cc3)cc2C1 [P-0032, N-butyl-7-(4-(trifluoro-methyl)phenoxy)-3,4-dihydroisoquinoline-2(1H)-carboxamide] was tested, and the IC50 was 0.001 to 10 µM. O=C(C1CCC1)N1CCc2ccc(Oc3ccc(C(F)(F)F)cc3)cc2C1 [P-0033, cyclobutyl(7-(4-(trifluoro-methyl)phenoxy)-3,4-dihydroisoquinolin-2(1H)-yl)methanone] showed an IC50 of 0.001 to 10 µM. CCCCS(=O)(=O)N1CCc2ccc(Oc3ccc(C(F)(F)F)cc3)cc2C1 [P-0034, 2-(butylsulfonyl)-7-(4-(trifluoromethyl)phen-oxy)-1,2,3,4-tetrahydro-isoquinoline] gave an IC50 of 0.001 to 10 µM. For CCN(CC)C(=O)N1CCc2ccc(Oc3ccc(C(F)(F)F)cc3)cc2C1 [P-0035, N,N-diethyl-7-(4-(trifluoromethyl)phen-oxy)-3,4-dihydroisoquin-oline-2(1H)-carboxamide], the IC50 was 0.001 to 10 µM.

Same assay, conditions: MSTO-211H+12XGTIIC cell line, luciferase signal normalized to cell viability, 24 hours compound incubation; read-out: MSTO-211H GMean IC50 (uM) Cell Assay Reporter Cell Variant: TEAD
C=CC(=O)N1CCC(C2c3cc(Oc4ccc(C(F)(F)F)cc4)ccc3CCN2C(=O)CCS(C)(=O)=O)C1 (single isomer, unassigned) [P-0218, 1-(3-(2-(3-(methylsulfonyl)propanoyl)-7-(4-(trifluoromethyl)phenoxy)-1,2,3,4-tetrahydroisoquinolin-1-yl)pyrrolidin-1-yl)prop-2-en-1-one] gave an IC50 of 0.001 to 10 µM.

Reference: patent publication US20250129028A1, “COMPOUNDS AND METHODS FOR YAP/TEAD MODULATION AND INDICATIONS THEREFOR” (Opna Bio SA, priority 2022, published 2025)
